This test deals with GLP-1 receptor (Homo sapiens (Human), UniProt P43220). The test can be described thus: Agonist activity against GLP-1 receptor, CRE-luciferase reporter (ONE-Glo) in CHO-K1/CRE-luc/GLP-1 receptor cells. The settings on record: 6 h incubation. The format is cell-based. From the text:
This experiment was intended to test the agonist activity of the compound molecules against the GLP-1 receptor and evaluate the in vitro activity of the molecules according to EC50. The experiment adopted a ONE-Glo™ Luciferase Assay System (Promega, E6110). Under the action of compound molecules, GLP-1R downstream signaling pathways were activated to cause elevated cAMP level. The combination of cAMP and CRE could start the transcription expression of CRE downstream luciferase genes, the luciferase could emit fluorescence when reacting with substrates thereof, and the activity of the compound for agonizing GLP-1 receptors was reflected by measuring fluorescence signals through a ONE-Glo™ reagent.
Stably-expressed CHO-K1/CRE-luc/GLP-1 receptor cell strains (self-construction of GLP-1 receptor plasmid; CRE-luc plasmid Promega E8471) were constructed. CHO-K1/CRE-luc/GLP-1 receptor cells were digested, and resuspended after centrifugation. […] The plate was incubated in an incubator for 16 h (37° C., 5% CO2).
The compound was dissolved in DMSO to prepare a stock solution with an initial concentration of 20 mM. The starting concentration of the small molecule compound was 0.2 mM, and the compound underwent 3-fold serial dilution for a total of 10 concentration points, with DMSO at the 11th point. To another 96-well plate was added 95 μL of cell culture medium (DME/F-12+10% FBS), 5 μL of test samples with different concentrations were added to each well, followed by uniform mixing, and then 10 μL of test samples with different concentrations were added to each well, with two duplicate wells set for each sample. The plate was incubated in an incubator for 6 h (37° C., 5% CO2). The 96-well cell culture plate was taken out, and 100 μL of ONE-Glo™ reagent was added to each well, followed by incubation at room temperature for 10 min. The plate was placed in a microplate reader (EnVision 2105, PE) for determination of chemiluminescence.
Data were processed and analyzed using Microsoft Excel and Graphpad Prism 5.
(Reporter assays use an easily measured gene product as a stand-in for the process of interest.)

Chain of GLP-1 receptor (P43220 24-463): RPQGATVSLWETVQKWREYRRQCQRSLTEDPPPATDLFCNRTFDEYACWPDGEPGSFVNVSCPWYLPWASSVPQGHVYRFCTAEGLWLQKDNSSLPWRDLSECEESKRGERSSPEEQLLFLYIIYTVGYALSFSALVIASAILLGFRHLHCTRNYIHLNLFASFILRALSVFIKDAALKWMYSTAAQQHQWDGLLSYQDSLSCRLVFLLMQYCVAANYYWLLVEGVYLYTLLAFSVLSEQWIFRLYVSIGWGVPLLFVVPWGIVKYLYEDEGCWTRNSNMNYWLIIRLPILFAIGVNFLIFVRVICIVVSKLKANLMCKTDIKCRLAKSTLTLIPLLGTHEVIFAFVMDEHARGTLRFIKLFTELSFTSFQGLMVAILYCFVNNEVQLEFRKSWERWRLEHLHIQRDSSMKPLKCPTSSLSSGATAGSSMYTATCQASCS

`O=C(O)c1ccc2nc(CN3CCC(c4cccc5c4O[C@@H](c4ccc(Cl)cc4F)CO5)CC3)n(C[C@@H]3CCO3)c2n1` [Example 5, 2-((4-((S)-3-(4-Chloro-2-fluorophenyl)-2,3-dihydrobenzo[b][1,4]dioxan-5-yl)piperidin-1-yl)methyl)-3-((S)-oxetan-2-ylmethyl)-3H-imidazo[4,5-b]pyridine-5-carboxylic acid]: the concentration giving a half-maximal response (EC50) (commonly the concentration giving half of the maximal effect) was determined as 0.12 nM and the Emax (in general, the greatest response seen or fitted, relative to the assay's reference) came out at 107%.
